In the assay the test system is U87MG cells. Nature of the assay: Cytotoxicity assay (cell viability, CellTiter 96 Aqueous MTS). The format is cell-based. The settings on record: Homo sapiens, U-87 MG, 72 h, 72 hours incubation, starting concentration 50 uM, 9 point half log dilution, average where tested repeatedly. In short, it runs like this: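 U87MG cells plated at 7×10^3 cells/well overnight, then treated 72 h with 9-point half-log dilutions from a 50 uM starting concentration. Viability measured with CellTiter 96 Aqueous MTS; IC50 calculated from viability.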
Compound `Cc1cc(C(=O)NCCCc2ccc(-c3ccc4c(cnn4C)c3)cc2)no1` [Compound 227, 5-methyl-N-(3-(4-(1-methyl-1H-indazol-5-yl)phenyl)propyl)isoxazole-3-carboxamide] yielded a 50% inhibitory concentration (IC50) of less than 500 nM. Take `Cc1cc(C(=O)NCCCc2ccc(-c3ccc4[nH]ncc4c3C)cc2)n(C)n1` [Compound 228, 1,3-dimethyl-N-(3-(4-(4-methyl-1H-indazol-5-yl)phenyl)propyl)-1H-pyrazole-5-carboxamide]: the IC50 was less than 500 nM. Regarding `Cc1ccc(C(=O)NCCCc2ccc(-c3cnc4[nH]ccc4c3)cc2)cn1` [Compound 229, N-(3-(4-(1H-pyrrolo[2,3-b]pyridin-5-yl)phenyl)propyl)-6-methylnicotinamide], the IC50 is less than 500 nM. In turn, `Cn1ncc2cc(-c3ccc(CCCNC(=O)c4cncnc4)cc3)ccc21` [Compound 231, N-(3-(4-(1-methyl-1H-indazol-5-yl)phenyl)propyl)pyrimidine-5-carboxamide] returned an IC50 of less than 500 nM. To `COc1cccc(-c2ccc(CCCNC(=O)c3ccc(C)nc3)cc2)c1F` [Compound 234, N-(3-(2′-fluoro-3′-methoxy-[1,1′-biphenyl]-4-yl)propyl)-6-methylnicotinamide] belongs less than 500 nM; to `Cc1cc(C(=O)NCCCc2ccc(-c3cnc4[nH]ccc4c3)cc2)no1` [Compound 235, N-(3-(4-(1H-pyrrolo[2,3-b]pyridin-5-yl)phenyl)propyl)-5-methylisoxazole-3-carboxamide], less than 500 nM; to `Cc1cc(C(=O)NCCCc2ccc(-c3ccc4c(cnn4C)c3)cc2)n(C)n1` [Compound 236, 1,3-dimethyl-N-(3-(4-(1-methyl-1H-indazol-5-yl)phenyl)propyl)-1H-pyrazole-5-carboxamide], less than 500 nM. In turn, `Cc1ccc(C(=O)NCCCc2ccc(-c3ccc4ncccc4c3)cc2)cn1` [Compound 237, 6-methyl-N-(3-(4-(quinolin-6-yl)phenyl)propyl)nicotinamide] returned an IC50 of less than 500 nM. Consider `COc1cccc(-c2ccc(CCCNC(=O)c3cc(C)nn3C)cc2)c1F` [Compound 238, N-(3-(2′-fluoro-3′-methoxy-[1,1′-biphenyl]-4-yl)propyl)-1,3-dimethyl-1H-pyrazole-5-carboxamide], for which the IC50 lay in the range of 501 to 1000 nM. To `COc1cccc(-c2ccc(CCCNC(=O)c3cc(C)on3)cc2)c1F` [Compound 240, N-(3-(2′-fluoro-3′-methoxy-[1,1′-biphenyl]-4-yl)propyl)-5-methylisoxazole-3-carboxamide] belongs 501 to 1000 nM; to `Cc1ncccc1C(=O)NCCCc1ccc(-c2ccc3c(cnn3C)c2)cc1` [Compound 241, 2-methyl-N-(3-(4-(1-methyl-1H-indazol-5-yl)phenyl)propyl)nicotinamide], less than 500 nM; to `Cc1cc(C(=O)NCCCc2ccc(-c3ccc4ncccc4c3)cc2)n(C)n1` [Compound 242, 1,3-dimethyl-N-(3-(4-(quinolin-6-yl)phenyl)propyl)-1H-pyrazole-5-carboxamide], less than 500 nM. As for `COc1ccc(CC(=O)NCCCc2ccc(-c3ccc4c(cnn4C)c3)cc2)cc1` [Compound 244, 2-(4-methoxyphenyl)-N-(3-(4-(1-methyl-1H-indazol-5-yl)phenyl)propyl)acetamide], the figure is less than 500 nM; as for `COc1ccc(CC(=O)NCCCc2ccc(-c3cccc(OC)c3F)cc2)cc1` [Compound 245, N-(3-(2′-fluoro-3′-methoxy-[1,1′-biphenyl]-4-yl)propyl)-2-(4-methoxyphenyl)acetamide], 501 to 1000 nM. As for `COc1ccc(CC(=O)NCCCc2ccc(-c3ccc4ncccc4c3)cc2)cc1` [Compound 246, 2-(4-methoxyphenyl)-N-(3-(4-(quinolin-6-yl)phenyl)propyl)acetamide], the IC50 was less than 500 nM. The compound `COc1ccc(CC(=O)NCCCc2ccc(-c3ccc4[nH]ncc4c3C)cc2)cc1` [Compound 247, 2-(4-methoxyphenyl)-N-(3-(4-(4-methyl-1H-indazol-5-yl)phenyl)propyl)acetamide] displayed an IC50 of less than 500 nM.

The compound `COc1cccc(-c2ccc(CCCNC(=O)c3cncnc3)cc2)c1F` [Compound 248] gave a half-maximal inhibitory concentration (IC50) of 501 to 1000 nM. `O=S(=O)(NCCCc1ccc(-c2ccccc2F)cc1)c1cccnc1` [Compound 262, N-(3-(2′-fluoro-[1,1′-biphenyl]-4-yl)propyl) pyridine-3-sulfonamide] registered an IC50 of 1000 to 5000 nM. Consider `Cn1cnc(S(=O)(=O)NCCCc2ccc(-c3ccccc3F)cc2)c1` [Compound 263, N-(3-(2′-fluoro-[1,1′-biphenyl]-4-yl)propyl)-1-methyl-1H-imidazole-4-sulfonamide], for which the IC50 was in the range of 1000 to 5000 nM. `O=C(Nc1ccc2[nH]ccc2c1)OCCc1ccc(-c2ccccc2F)cc1` [Compound 272, 2-(2′-fluoro-[1,1′-biphenyl]-4-yl)ethyl (1H-indol-5-yl)carbamate] registered an IC50 of more than 5000 nM. To `COc1ccc(CNC(=O)OCCc2ccc(-c3ccccc3F)cc2)cc1` [Compound 273, 2-(2′-fluoro-[1,1′-biphenyl]-4-yl)ethyl (4-methoxybenzyl)carbamate] belongs more than 5000 nM; to `Cc1ccc(NC(=O)OCCc2ccc(-c3ccccc3F)cc2)cn1` [Compound 274, 2-(2′-fluoro-[1,1′-biphenyl]-4-yl)ethyl (6-methylpyridin-3-yl)carbamate], more than 5000 nM. In turn, `COc1cccc(-c2ccc(CC(C)(C)CNC(=O)c3ccc(C)nc3)cc2)c1F` [Compound 276, N-(3-(2′-fluoro-3′-methoxy-[1,1′-biphenyl]-4-yl)-2,2-dimethylpropyl)-6-methylnicotinamide] registered an IC50 of 1000 to 5000 nM. `Cc1ccc(C(=O)NCC(C)(C)Cc2ccc(-c3ccc4c(cnn4C)c3)cc2)cn1` [Compound 277, N-(2,2-dimethyl-3-(4-(1-methyl-1H-indazol-5-yl)phenyl)propyl)-6-methylnicotinamide] returned an IC50 of 501 to 1000 nM.

With `O=C(Nc1cccnc1)N1CCN(c2ccc(-c3ccccc3F)cc2)CC1` [Compound 278, 4-(2′-fluoro-[1,1′-biphenyl]-4-yl)-N-(pyridin-3-yl)piperazine-1-carboxamide], the IC50 lay within 1000 to 5000 nM. The compound `Cc1ccc(NC(=O)N2CCN(c3ccc(-c4ccccc4F)cc3)CC2)cn1` [Compound 279, 4-(2′-fluoro-[1,1′-biphenyl]-4-yl)-N-(6-methylpyridin-3-yl)piperazine-1-carboxamide] displayed an IC50 of 501 to 1000 nM.

`O=C(Nc1cn[nH]c1)N1CCN(c2ccc(-c3ccccc3F)cc2)CC1` [Compound 281, 4-(2′-fluoro-[1,1′-biphenyl]-4-yl)-N-(1H-pyrazol-4-yl)piperazine-1-carboxamide] yielded an IC50 of more than 5000 nM. As for `Cc1ccc(C(=O)NCCOc2ccc(-c3ccccc3F)cc2)cn1` [Compound 282, N-(2-((2′-fluoro-[1,1′-biphenyl]-4-yl)oxy)ethyl)-6-methylnicotinamide], the figure is more than 5000 nM. In turn, `O=C(Cc1ccc(F)cc1)NCCCc1ccc(-c2ccccc2F)cc1` [Compound 284, N-(3-(2′-fluoro-[1,1′-biphenyl]-4-yl)propyl)-2-(4-fluorophenyl)acetamide] registered an IC50 of less than 500 nM. In turn, `Cc1oncc1C(=O)NCCCc1ccc(-c2ccccc2F)cc1` [Compound 285, N-(3-(2′-fluoro-[1,1′-biphenyl]-4-yl)propyl)-5-methylisoxazole-4-carboxamide] showed an IC50 of more than 5000 nM. Consider `Cc1cc2ncc(C(=O)NCCCc3ccc(-c4ccccc4F)cc3)cn2n1` [Compound 286, N-(3-(2′-fluoro-[1,1′-biphenyl]-4-yl)propyl)-2-methylpyrazolo[1,5-a]pyrimidine-6-carboxamide], for which the IC50 is less than 500 nM. The compound `Cc1ncoc1C(=O)NCCCc1ccc(-c2ccccc2F)cc1` [Compound 290, N-(3-(2′-fluoro-[1,1′-biphenyl]-4-yl)propyl)-4-methyloxazole-5-carboxamide] showed a 50% inhibitory concentration (IC50) of more than 5000 nM. In turn, `COc1ncccc1C(=O)NCCCc1ccc(-c2ccccc2F)cc1` [Compound 292, N-(3-(2′-fluoro-[1,1′-biphenyl]-4-yl)propyl)-2-methoxynicotinamide] returned an IC50 of more than 5000 nM. `O=C(Cc1ccc2c(c1)OCCO2)NCCCc1ccc(-c2ccccc2F)cc1` [Compound 293, 2-(2,3-dihydrobenzo[b][1,4]dioxin-6-yl)-N-(3-(2′-fluoro-[1,1′-biphenyl]-4-yl)propyl)acetamide] yielded a half-maximal inhibitory concentration (IC50) of more than 5000 nM. With `Cn1ccc2cc(-c3ccc(CCCC(=O)Nc4cccnc4)cc3)cnc21` [Compound 294, 4-(4-(1-methyl-1H-pyrrolo[2,3-b]pyridin-5-yl)phenyl)-N-(pyridin-3-yl)butanamide], the IC50 fell in the range of 501 to 1000 nM. Compound `O=C(CCCc1ccc(-c2c[nH]c3ncccc23)cc1)Nc1cccnc1` [Compound 295, 4-(4-(1H-pyrrolo[2,3-b]pyridin-3-yl)phenyl)-N-(pyridin-3-yl)butanamide] showed an IC50 of 1000 to 5000 nM. In turn, `Cn1cnc2cc(-c3ccc(CCCC(=O)Nc4cccnc4)cc3)ccc21` [Compound 296, 4-(4-(1-methyl-1H-benzo [d]imidazol-5-yl)phenyl)-N-(pyridin-3-yl)butanamide] showed an IC50 of less than 500 nM. `Cc1nc2cc(-c3ccc(CCCC(=O)Nc4cccnc4)cc3)ccc2n1C` [Compound 297, 4-(4-(1,2-dimethyl-1H-benzo[d]imidazol-5-yl)phenyl)-N-(pyridin-3-yl)butanamide]: the IC50 was less than 500 nM. Turning to `Cn1cnc2ccc(-c3ccc(CCCC(=O)Nc4cccnc4)cc3)cc2c1=O` [Compound 299, 4-(4-(3-methyl-4-oxo-3,4-dihydroquinazolin-6-yl)phenyl)-N-(pyridin-3-yl)butanamide], the IC50 was more than 5000 nM. Take `Cc1cc(-c2ccc(CCCC(=O)Nc3cccnc3)cc2)cc2cn[nH]c12` [Compound 301, 4-(4-(7-methyl-1H-indazol-5-yl)phenyl)-N-(pyridin-3-yl)butanamide]: the half-inhibitory concentration (IC50) is less than 500 nM. Compound `Cc1cc2[nH]ncc2cc1-c1ccc(CCCC(=O)Nc2cccnc2)cc1` [Compound 302, 4-(4-(6-methyl-1H-indazol-5-yl)phenyl)-N-(pyridin-3-yl)butanamide] came in with an IC50 of 1000 to 5000 nM.

One may read the IC50 as the point on the concentration scale where inhibition reaches its midpoint.

Source of the values: US12247010B2, “Tubulin inhibitors” (LIN BIOSCIENCE PTY LTD., priority 2017, dated 2025).
